Results taken from ChEMBL document CHEMBL1201862, “PubChem BioAssay data set” (2004).
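Step 1: Grow cells in 96-well plates. Step 2: Expose to compound for 48 hours at 5 concentrations. Step 3: Interpolate endpoints linearly; if unreached, use highest concentration. GI50: concentration for 50% inhibition of growth.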 The source made the active and inactive calls. Cut-off read from the data, not from the text of the source: active = GI50 up to about 1.1 µM and inactive = higher.

Key:
Experiment in all cases: DTP human tumour cell line panel, 48 h
A498 = test system: A498
CAKI-1 = test system: CAKI-1
CCRF-CEM = test system: CCRF-CEM
COLO 205 = test system: COLO 205
HL-60 = test system: HL-60
HOP-62 = test system: HOP-62
HT-29 = test system: HT-29
KM12 = test system: KM12
LOX IMVI = test system: LOX IMVI
M14 = test system: M14
NCI-H23 = test system: NCI-H23
NCI-H522 = test system: NCI-H522
OVCAR-8 = test system: OVCAR-8
RPMI-8226 = test system: RPMI-8226
SK-MEL-5 = test system: SK-MEL-5
SNB-19 = test system: SNB-19
SW-620 = test system: SW-620
TK-10 = test system: TK-10
UACC-62 = test system: UACC-62

| Structure (SMILES) | GI50 (A498) | GI50 (CAKI-1) | GI50 (CCRF-CEM) | GI50 (COLO 205) | GI50 (HL-60) | GI50 (HOP-62) | GI50 (HT-29) | GI50 (KM12) | GI50 (LOX IMVI) | GI50 (M14) | GI50 (NCI-H23) | GI50 (NCI-H522) | GI50 (OVCAR-8) | GI50 (RPMI-8226) | GI50 (SK-MEL-5) | GI50 (SNB-19) | GI50 (SW-620) | GI50 (TK-10) | GI50 (UACC-62) |
| --- | --- | --- | --- | --- | --- | --- | --- | --- | --- | --- | --- | --- | --- | --- | --- | --- | --- | --- | --- |
| CSc1nc2nc(C)c(C)nc2c(=O)[nH]1 | > 100 µM (inactive) | > 100 µM (inactive) | > 100 µM (inactive) | > 100 µM (inactive) | > 100 µM (inactive) | > 100 µM (inactive) | > 100 µM (inactive) | > 100 µM (inactive) | > 100 µM (inactive) | > 100 µM (inactive) | > 100 µM (inactive) | > 100 µM (inactive) | > 100 µM (inactive) | > 100 µM (inactive) | > 100 µM (inactive) | > 100 µM (inactive) | > 100 µM (inactive) | > 100 µM (inactive) | > 100 µM (inactive) |
| O=c1c2ccccc2nc(-c2ccc(Br)cc2)n1NC1OC(CO)C(O)C(O)C1O (stereo not given) | > 100 µM (inactive) | > 100 µM (inactive) | 32.8 µM (inactive) | 59.8 µM (inactive) | 34.1 µM (inactive) | > 100 µM (inactive) | > 100 µM (inactive) | > 100 µM (inactive) | – | > 100 µM (inactive) | > 100 µM (inactive) | 81.7 µM (inactive) | 91.4 µM (inactive) | 72.9 µM (inactive) | 75.9 µM (inactive) | > 100 µM (inactive) | > 100 µM (inactive) | > 100 µM (inactive) | 79.6 µM (inactive) |
| CCOC(=O)CC[C@H](NC(=O)c1nc[nH]c1/N=N/N(C)C)C(=O)OCC | > 100 µM (inactive) | > 100 µM (inactive) | > 100 µM (inactive) | > 100 µM (inactive) | > 100 µM (inactive) | > 100 µM (inactive) | > 100 µM (inactive) | > 100 µM (inactive) | > 100 µM (inactive) | > 100 µM (inactive) | > 100 µM (inactive) | > 100 µM (inactive) | > 100 µM (inactive) | > 100 µM (inactive) | > 100 µM (inactive) | > 100 µM (inactive) | > 100 µM (inactive) | – | > 100 µM (inactive) |
| O=C(O)CNS(=O)(=O)c1ccc(NC(=O)c2ccc(F)cc2)cc1 | > 100 µM (inactive) | > 100 µM (inactive) | > 100 µM (inactive) | > 100 µM (inactive) | > 100 µM (inactive) | – | > 100 µM (inactive) | > 100 µM (inactive) | > 100 µM (inactive) | > 100 µM (inactive) | > 100 µM (inactive) | > 10 µM (inactive) | > 100 µM (inactive) | > 100 µM (inactive) | > 100 µM (inactive) | > 100 µM (inactive) | > 100 µM (inactive) | > 100 µM (inactive) | > 100 µM (inactive) |
| CC(C)(C)c1ccc(C(O)c2ccc(C(C)(C)C)cc2)cc1 | 18.7 µM (inactive) | 15.1 µM (inactive) | 16.9 µM (inactive) | 13.6 µM (inactive) | 17.1 µM (inactive) | 16.3 µM (inactive) | 10.4 µM (inactive) | 15.6 µM (inactive) | 14.7 µM (inactive) | 15 µM (inactive) | 12.1 µM (inactive) | 10.2 µM (inactive) | 14.8 µM (inactive) | – | 16.6 µM (inactive) | 17.9 µM (inactive) | 14.6 µM (inactive) | 21.1 µM (inactive) | 15.8 µM (inactive) |
| CCOc1ccc(NC(=O)C(=O)CC(=O)c2c(C)[n+]([O-])c3ccccc3[n+]2[O-])cc1 | > 100 µM (inactive) | > 100 µM (inactive) | > 100 µM (inactive) | > 100 µM (inactive) | > 100 µM (inactive) | > 100 µM (inactive) | > 100 µM (inactive) | > 100 µM (inactive) | > 100 µM (inactive) | > 100 µM (inactive) | > 100 µM (inactive) | > 100 µM (inactive) | > 100 µM (inactive) | > 100 µM (inactive) | > 100 µM (inactive) | > 100 µM (inactive) | > 100 µM (inactive) | > 100 µM (inactive) | > 100 µM (inactive) |
| CCCCCCCC(=O)OCC1OC(n2cc(F)c(=O)[nH]c2=O)C(NC(=O)OCc2ccccc2)C(OC(=O)CCCCCCC)C1O (stereo not given) | > 100 µM (inactive) | 19.2 µM (inactive) | 17.5 µM (inactive) | 26 µM (inactive) | 16.5 µM (inactive) | 71.8 µM (inactive) | 29.8 µM (inactive) | 35.3 µM (inactive) | 15.1 µM (inactive) | 25.4 µM (inactive) | 41.4 µM (inactive) | 16.7 µM (inactive) | 34 µM (inactive) | 16.6 µM (inactive) | 0.309 µM (active) | 0.11 µM (active) | 35 µM (inactive) | 38 µM (inactive) | 19.5 µM (inactive) |
| COc1cc(C)cc(OC)c1/C=C/C(=O)O | > 100 µM (inactive) | > 100 µM (inactive) | – | – | > 100 µM (inactive) | > 100 µM (inactive) | > 100 µM (inactive) | > 100 µM (inactive) | > 100 µM (inactive) | > 100 µM (inactive) | > 100 µM (inactive) | > 100 µM (inactive) | > 100 µM (inactive) | > 100 µM (inactive) | > 100 µM (inactive) | > 100 µM (inactive) | > 100 µM (inactive) | > 100 µM (inactive) | > 100 µM (inactive) |
| COC(=O)c1cc2c(s1)C(=O)c1ccccc1-2 | > 100 µM (inactive) | > 100 µM (inactive) | > 100 µM (inactive) | > 100 µM (inactive) | > 100 µM (inactive) | > 100 µM (inactive) | > 10 µM (inactive) | > 100 µM (inactive) | > 100 µM (inactive) | > 100 µM (inactive) | > 100 µM (inactive) | > 100 µM (inactive) | > 100 µM (inactive) | – | > 100 µM (inactive) | > 100 µM (inactive) | > 100 µM (inactive) | > 100 µM (inactive) | > 100 µM (inactive) |
| CCC1=C(C(C)=O)[C@@H]2CCCCC(C(=O)OC)[C@@H]2C1=O (stereo not given in full) | > 100 µM (inactive) | > 100 µM (inactive) | > 100 µM (inactive) | > 100 µM (inactive) | > 100 µM (inactive) | > 100 µM (inactive) | > 100 µM (inactive) | > 100 µM (inactive) | – | > 100 µM (inactive) | > 100 µM (inactive) | 88.1 µM (inactive) | > 100 µM (inactive) | > 100 µM (inactive) | > 100 µM (inactive) | > 100 µM (inactive) | > 100 µM (inactive) | > 100 µM (inactive) | > 100 µM (inactive) |
| C=C1CCC2[C@@H](CCC3[C@]2(C)CCC[C@]3(C)C(=O)OC)C1CCO (stereo not given in full) | 15.8 µM (inactive) | 12.1 µM (inactive) | 10.5 µM (inactive) | 13 µM (inactive) | 4.02 µM (inactive) | 19.8 µM (inactive) | 4.37 µM (inactive) | 12.5 µM (inactive) | – | 13.6 µM (inactive) | 9.35 µM (inactive) | 5.2 µM (inactive) | 18.8 µM (inactive) | 3.12 µM (inactive) | 4.53 µM (inactive) | 14 µM (inactive) | 13.1 µM (inactive) | 18.6 µM (inactive) | 11.2 µM (inactive) |
